# Experimental data reported in article PMC6733874, “Zebrafish behavioural profiling identifies GABA and serotonin receptor ligands related to sedation and paradoxical excitation” (Nature Communications, 2019).
# What was measured:
# dopamine transporter = dopamine transporter (Homo sapiens, UniProt Q01959); test: In vitro receptor binding (NIMH PDSP)
# Excerpt: (§1) A second approach to target identification was to test the binding affinity of hit compounds against a panel of 43 human and rodent neurotransmitter-related targets. […]. Several hit compounds bound to multiple targets, including compound 7145248, which bound to TSPO, the benzodiazepine receptor (BZP), dopamine transporter, and the alpha 2b receptor (Fig. 3d). The most common targets (binding > 5 compounds) included BZP, sigma 2, HTR2A/B/C, HTR6, and TSPO (Fig. 3c, d). TSPO, previously known as the peripheral benzodiazepine receptor (PBR) (because it was originally identified as a binding site for benzodiazepine anxiolytic drugs), is a mitochondrial protein that supplies cholesterol to steroid-producing enzymes in the brain[36]. TSPO ligands are thought to enhance GABAergic signaling by increasing neurosteroid production. However, some TSPO ligands, including benzodiazepines and zolpidem, also bind to GABAARs directly. […] Of the 14 compounds that bound to TSPO in vitro, 5 compounds potentiated GABAAR in FLIPR assays (Fig. 3c; 2f, green arrowheads).
# (§2) In vitro binding assays and Ki data were generated by the National Institute of Mental Health’s Psychoactive Drug Screening Program (PDSP), contract no. HHSN-271-2008-00025-C (NIMH PDSP), for assay details: http://pdsp.med.unc.edu/PDSP%20Protocols%20II%202013-03-28.pdf. Normalized Ki (npKi) values were generated as follows: npKi = 4 + (−log10 (Ki))[64].
# TSPO = TSPO (Rattus norvegicus, UniProt P16257); test: In vitro receptor binding (NIMH PDSP)
# Excerpt: as §1, §2
# alpha 2b receptor = biological target: T1, alpha 2b receptor (Homo sapiens, UniProt P18089); test: In vitro receptor binding (NIMH PDSP); settings: in words; binding counted at Ki < 10 μM
# T1 sequence (P18089 1-450): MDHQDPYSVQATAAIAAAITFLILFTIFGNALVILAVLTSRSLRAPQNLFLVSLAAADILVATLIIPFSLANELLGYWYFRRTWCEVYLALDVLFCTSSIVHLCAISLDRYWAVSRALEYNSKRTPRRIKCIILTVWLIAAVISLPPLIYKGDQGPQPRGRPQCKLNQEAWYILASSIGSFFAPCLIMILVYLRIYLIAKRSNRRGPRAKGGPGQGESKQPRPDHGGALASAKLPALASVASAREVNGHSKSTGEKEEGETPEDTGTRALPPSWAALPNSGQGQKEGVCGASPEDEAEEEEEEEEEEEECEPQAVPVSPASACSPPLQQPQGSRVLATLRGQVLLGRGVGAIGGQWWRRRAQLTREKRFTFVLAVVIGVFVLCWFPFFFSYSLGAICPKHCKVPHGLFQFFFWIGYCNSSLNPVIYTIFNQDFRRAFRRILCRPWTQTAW
# Excerpt: as §1, §2
# [1] = biological target: benzodiazepine receptor (BZP); test: In vitro receptor binding (NIMH PDSP); settings: in words; binding counted at Ki < 10 μM
# Excerpt: as §1, §2
# [2] = test system: human GABAARs (α1β2 and α1β2γ2); assay type: cell-based; settings: for Ave Norm FLIPR Score: DMSO = 1
# zebrafish [3] = test: Viability of anesthetic treated animals; assay type: in vivo; settings: zebrafish, in vivo
# Description: Behavioral assays for pERK. Animals were treated with DMSO or drug for one hour then exposed to a low-volume acoustic stimulus every 10 seconds for 10 minutes. Optovin-treated animals were stimulated with violet light for one second every 10 seconds for 10 minutes. Videos were recorded to measure response to the stimulus and quantified by motion index (MI). Animals were immediately […]
# High speed imaging. Digital video was recorded at 500-1000 frames per second using an Integrated Design Tools NX5-S1 digital camera. Assay duration was 500-1000 ms. Low amplitude tap stimuli was delivered as described above. Videos and still images were assembled using Fiji (imageJ) and […]
# RNAscope. Zebrafish (6 dpf) were fixed using 10% normal buffered formaldehyde overnight at 4 °C, dehydrated in 100% methanol and stored at -20 °C until the assay was performed. Fluorescent in situ hybridization was performed using the RNAScope kit (Advanced Cell Diagnostics)4 with the following modifications: target retrieval was performed using 150 mM Tris pH 9.5 for 15 minutes at 70 °C, washes were performed using 0.2x SSCT (0.01% Tween-20, […], 0.3mM TriNa-citrate, pH7), samples were stored overnight after probe hybridization and 2x 5 minute washes in 5x SSC ([…], pH7) at room temperature before amplification and detection steps were performed the following day.
# Viability. Animals were scored manually to determine viability after anesthetic treatments. 100 animals were scored per condition at 10 minutes, 1 hour and 5 hours post treatment. Strong heart rate was observed under a dissecting scope (Leica M-80) for our viability score. […]
# rdkit function FingerprintMols package written for python. Tanimoto similarity function was used with a […]
# zebrafish [4] = assay type: in vivo
# Description: Behavioral assays for pERK. Animals were treated with DMSO or drug for one hour then exposed to a low-volume acoustic stimulus every 10 seconds for 10 minutes. Optovin-treated animals were stimulated with violet light for one second every 10 seconds for 10 minutes. Videos were recorded to measure response to the stimulus and quantified by motion index (MI). […]
# zebrafish [5] = test: Optovin-response suppression assay (pain-related); settings: in words; relative to concentrations that caused eASRs
# Description: To determine if any of the hit compounds may be analgesic, we used optovin-induced motor activity as a potential analgesia-related assay.
# zebrafish [6] = assay type: in vivo; remark: listed apart in the source
# adult zebrafish = test: Behavioral responses of adult zebrafish; settings: in words
# zebrafish [7] = test: Cortisol detection assay; assay type: in vivo; settings: 7-day old larvae treated 1 h; in words
# Description: Cortisol levels were measured in zebrafish. Briefly, 15, 7-day old larvae were treated with the indicated compounds for 1 h. Larvae were anesthetized in ice-cold egg water and then snap-froze in an ethanol/dry ice bath. Larvae were then homogenized in 100 μL of water. Cortisol was extracted from the homogenate with 1 mL of ethyl acetate, the resulting supernatant was collected and the solvent allowed to evaporate. Cortisol was dissolved in 0.2% bovine serum albumin (A7030, Sigma) and frozen at −20 °C. For cortisol ELISA experiments, 96-well plates (VWR International) were treated with cortisol antibody (P01-92-94M-P, EastCoast Bio; […] in PBS) for 16 h at 4 °C, washed, and blocked with 0.1% BSA in PBS. Cortisol samples and cortisol-HRP (P91-92-91H, EastCoast Bio) were incubated at room temperature for 2 h and washed extensively with PBS containing 0.05% Tween-20 (Invitrogen). Detection of HRP was performed using tetramethylbenzidine (TMB: 22166-1, Biomol) and Tetrabutylammonium borohydride (TBABH: 230170-10 G, Sigma). Reaction was stopped using 1 M H2SO4. Absorbance was read at 450 nm in an ELISA plate reader (SpectraMax MS, Molecular Devices).
# [8] = compound at 20 uM then 5 uM GABA
# Chain of TSPO (P16257 whole entry): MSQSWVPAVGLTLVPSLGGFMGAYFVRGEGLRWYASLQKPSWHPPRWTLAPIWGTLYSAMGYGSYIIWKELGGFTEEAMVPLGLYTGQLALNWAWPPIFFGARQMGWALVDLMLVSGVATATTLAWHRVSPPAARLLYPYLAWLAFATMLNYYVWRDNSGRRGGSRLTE
# Chain of dopamine transporter (Q01959 whole entry): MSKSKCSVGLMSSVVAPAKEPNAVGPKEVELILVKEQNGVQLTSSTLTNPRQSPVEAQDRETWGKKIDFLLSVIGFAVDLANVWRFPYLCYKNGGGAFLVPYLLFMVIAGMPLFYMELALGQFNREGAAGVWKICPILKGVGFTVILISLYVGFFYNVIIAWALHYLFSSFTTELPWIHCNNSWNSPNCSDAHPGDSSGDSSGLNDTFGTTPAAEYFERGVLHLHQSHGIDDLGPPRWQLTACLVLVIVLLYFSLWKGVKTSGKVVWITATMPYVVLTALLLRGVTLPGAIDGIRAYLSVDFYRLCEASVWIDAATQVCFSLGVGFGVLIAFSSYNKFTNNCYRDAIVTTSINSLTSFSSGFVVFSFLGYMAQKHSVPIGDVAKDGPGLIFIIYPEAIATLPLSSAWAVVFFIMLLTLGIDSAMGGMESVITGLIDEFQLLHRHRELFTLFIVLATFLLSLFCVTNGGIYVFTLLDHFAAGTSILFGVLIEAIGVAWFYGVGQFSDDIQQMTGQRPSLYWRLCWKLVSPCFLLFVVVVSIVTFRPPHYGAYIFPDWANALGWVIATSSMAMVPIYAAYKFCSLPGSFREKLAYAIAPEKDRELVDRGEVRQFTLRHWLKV
SMILES,binding (dopamine transporter),binding (TSPO),binding (alpha 2b receptor),binding [1],"Ave Norm FLIPR Score [2, 8]",toxicity at the concentrations that caused eASRs (zebrafish [3]),"FLIPR Results ([2]; compound at 20 uM then 5 uM GABA, Positive/Negative)","GABAAR PAM activity in FLIPR, in words ([2]; in the presence of GABA)",pERK labeling (neuronal activity) (zebrafish [4]; in words),"pERK labeling in the caudal hindbrain at higher concentration (zebrafish [4]; zebrafish, in vivo)",optovin response (optovin-induced motor activity) (zebrafish [5]),eASRs at higher concentration (zebrafish [6]; 50 µM compared to 6 µM),"Average phenoscore of etomidate-treated positive controls (zebrafish [6]; etomidate 6.5 uM, versus DMSO 0.2)","percent animals responding (startle frequency) (zebrafish [6]; etomidate 6.25 µΜ, dampened solenoid stimulus, 100 animals, controls 2%) [%]","rescue of behavioral phenotypes by pretreatment with the GABAAR antagonist PTX (zebrafish [6]; violet light and eASR phenotypes, in words)",violet light response and acoustic startle in adult animals (adult zebrafish),cortisol levels (zebrafish [7])
O=C(NCc1cccc(Oc2ccccc2)c1)C(=O)c1c[nH]c2ccccc12 [compound 7145248],bound,bound,bound,bound,-24.79,–,–,–,–,–,–,–,–,–,–,–,–
CCOC(=O)c1cncn1[C@H](C)c1ccccc1 [etomidate],–,–,–,–,50.67,Neither etomidate or propofol was toxic,Positive,increased fluorescence in the presence of GABA,broadly reduced,decreased pERK labeling in the caudal hindbrain,suppressed the optovin response,suppressed eASRs,0.71,85,rescued,"reducing the violet light response, while increasing acoustic startle",lowered cortisol levels
